Patent US9145412B2, “Selective HDAC1 and HDAC2 inhibitors” (Acetylon Pharmaceuticals, Inc., priority 2012, dated 2015)

Tests used:
HDAC1 = HDAC1 (Homo sapiens (Human), UniProt Q13547); test: HDAC enzyme assay; format: biochemical; details: enzyme pre-incubated with compound for 24 hours
Description: (§1) Compounds for testing were diluted in DMSO to 50 fold the final concentration and a ten point three fold dilution series was made. The compounds were diluted in assay buffer (50 mM HEPES, pH 7.4, 100 mM KCl, 0.001% Tween-20, 0.05% BSA, 20 μM tris(2-carboxyethyl)phosphine) to 6 fold their final concentration. The HDAC enzymes (purchased from BPS Biosciences) were diluted to 1.5 fold their final concentration in assay buffer and pre-incubated with the compounds for 24 hours prior to addition of the substrate.
(§2) The substrate tripeptide substrate 3 (synthesized in house) for each enzyme was equal to the Km as determined by a substrate titration curve. The substrates were diluted in assay buffer at 6× their final concentration with 0.3 μM sequencing grade trypsin (Sigma). The substrate/trypsin mix was added to the enzyme/compound mix, the plate was shaken for 60 seconds and placed into a Spectramax M5 microtiter plate reader. The development of fluorescence was monitored for […] and the linear rate of the reaction was calculated. The IC50 was determined using Graph Pad Prism by a four parameter curve fit. The IC50 values obtained for the compounds of this invention are found in Table 1.

HDAC3 = HDAC3 (Homo sapiens (Human), UniProt O15379); test: HDAC enzyme assay; format: biochemical; details: enzyme pre-incubated with compound for 24 hours
Sequence of HDAC3 (O15379 whole entry): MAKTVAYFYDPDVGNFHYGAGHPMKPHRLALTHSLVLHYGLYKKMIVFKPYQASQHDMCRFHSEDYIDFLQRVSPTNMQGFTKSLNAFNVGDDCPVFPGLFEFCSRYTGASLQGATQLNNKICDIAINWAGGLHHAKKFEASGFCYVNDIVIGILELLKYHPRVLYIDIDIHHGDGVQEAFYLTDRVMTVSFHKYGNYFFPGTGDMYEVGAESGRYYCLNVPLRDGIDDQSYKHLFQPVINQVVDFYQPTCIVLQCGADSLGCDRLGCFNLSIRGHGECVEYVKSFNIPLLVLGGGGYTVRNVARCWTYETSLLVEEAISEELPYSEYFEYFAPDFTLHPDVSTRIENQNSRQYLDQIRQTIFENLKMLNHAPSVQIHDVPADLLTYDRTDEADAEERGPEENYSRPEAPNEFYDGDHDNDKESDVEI
Sequence of HDAC3 (Q9Y618 395-489 partner): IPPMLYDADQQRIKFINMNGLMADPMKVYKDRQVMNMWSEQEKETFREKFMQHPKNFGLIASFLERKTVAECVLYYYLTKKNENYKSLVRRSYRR
Description: as §1, §2

HDAC2 = HDAC2 (Homo sapiens (Human), UniProt Q92769); test: HDAC enzyme assay; format: biochemical; details: enzyme pre-incubated with compound for 24 hours
Sequence of HDAC2 (Q92769 whole entry): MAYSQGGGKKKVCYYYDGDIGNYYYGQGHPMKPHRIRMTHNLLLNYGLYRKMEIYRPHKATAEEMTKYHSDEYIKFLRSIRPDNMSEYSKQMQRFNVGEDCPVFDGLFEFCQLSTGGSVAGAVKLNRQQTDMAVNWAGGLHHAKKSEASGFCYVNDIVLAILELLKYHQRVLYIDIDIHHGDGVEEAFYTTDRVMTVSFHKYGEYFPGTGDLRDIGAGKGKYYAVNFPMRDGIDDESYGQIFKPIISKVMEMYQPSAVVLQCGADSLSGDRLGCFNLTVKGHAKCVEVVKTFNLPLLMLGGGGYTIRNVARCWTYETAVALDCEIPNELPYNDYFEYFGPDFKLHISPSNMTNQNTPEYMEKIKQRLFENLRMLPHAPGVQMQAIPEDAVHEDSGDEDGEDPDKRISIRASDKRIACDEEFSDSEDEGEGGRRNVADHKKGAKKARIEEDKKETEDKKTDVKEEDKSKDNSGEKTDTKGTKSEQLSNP
Description: as §1, §2

[1] = system: human CD34+ bone marrow cells; test: Cell viability / cytotoxicity in cultured CD34+ cells; format: cell-based; details: 1 μM, after 6 days of treatment
Source text: (§3) To investigate whether HDAC1 or HDAC2 was the preferred therapeutic target, two compounds were used.

[2] = system: human CD34+ bone marrow cells; test: Fetal globin (HbG) induction in cultured CD34+ cells undergoing erythroid differentiation; format: cell-based; details: for increase in the percentage of HbG relative to other beta-like globin transcripts: 1 μM, treatment of cells for 6 days
Description: CD34+ cells isolated from human bone marrow were cultured in vitro using two distinct sets of culture conditions. Culture system 1 (CS1), described by Xu J et al. (Science 2011 Nov. 18; 334(6058):993-6), consists of a 7 day expansion phase in media that supports hematopoietic progenitor cells followed by a differentiation phase of 4 to 8 days in media that induces development of erythroid lineage cells. Culture system 2 (CS2), described by Bradner J E (Proc Natl Acad Sci USA. 2010 Jul. 13; 107(28):12617-22), consists of a 7 day expansion phase in media that supports differentiation of cells towards the erythroid lineage followed by a differentiation phase for 3 days where erythroid cell development continues. After 3 to 5 days in differentiation media CS1 cells are primarily early erythroblasts (EB), while CS2 cells are primarily late EB. mRNA levels were determine by quantitative real time PCR using primer/probe sets designed to adult major β-globin (β), adult minor β-globin (δ), fetal β-like globin (HbG, γ), and embryonic β-like globin (ε). Protein levels were determined by flow cytometry using fluorescent antibodies against fetal hemoglobin (HbF) or adult hemoglobin (HbA). […] Globin mRNA levels were determined in cells at day 0, 3, 5, and 8 of differentiation. […] Globin mRNA levels were determined at day 3 of differentiation. […] Hemoglobin protein levels within each cell were determined at day 5 of differentiation. […] After 2 days, media was exchanged and cells were differentiated for an additional 2 days in the absence of compound. Hemoglobin protein levels within each cell were determined at day 4 of differentiation.
as §3

[3] = system: human CD34+ bone marrow cells; test: Erythroid differentiation markers CD71 and glycophorinA; format: cell-based; details: 1 μM, 6 days
Source text: as §3

Sox6 mRNA = test: GeneChip and quantitative real-time PCR time course; format: cell-based
Source text: (§4) ChIP-seq data, both by itself and in combination with gene expression data, will provide further insight into the mechanism through which HDAC1/2 regulates HbF synthesis.

Bcl11A mRNA = test: as above; format: cell-based
Source text: as §4

Klf2 mRNA = test: as above; format: cell-based
Source text: as §4

Gata2 mRNA = test: as above; format: cell-based
Source text: as §4

[4] = system: early erythroblasts (CD71+, GlyA−); test: Gene expression profiling, Affymetrix PrimeView GeneChips; format: cell-based; details: n=3 vs vehicle
Source text: (§5) Significant enrichment in other gene sets involving targets linked to HbG regulation, including lysine-specific demethylase 1 (LSD1) (Shi L, Nature Medicine, 2012) were identified.

[5] = system: late erythroblasts (CD71+, GlyA+); test: as above; format: cell-based
Source text: as §5

Sequence of HDAC1 (Q13547 whole entry): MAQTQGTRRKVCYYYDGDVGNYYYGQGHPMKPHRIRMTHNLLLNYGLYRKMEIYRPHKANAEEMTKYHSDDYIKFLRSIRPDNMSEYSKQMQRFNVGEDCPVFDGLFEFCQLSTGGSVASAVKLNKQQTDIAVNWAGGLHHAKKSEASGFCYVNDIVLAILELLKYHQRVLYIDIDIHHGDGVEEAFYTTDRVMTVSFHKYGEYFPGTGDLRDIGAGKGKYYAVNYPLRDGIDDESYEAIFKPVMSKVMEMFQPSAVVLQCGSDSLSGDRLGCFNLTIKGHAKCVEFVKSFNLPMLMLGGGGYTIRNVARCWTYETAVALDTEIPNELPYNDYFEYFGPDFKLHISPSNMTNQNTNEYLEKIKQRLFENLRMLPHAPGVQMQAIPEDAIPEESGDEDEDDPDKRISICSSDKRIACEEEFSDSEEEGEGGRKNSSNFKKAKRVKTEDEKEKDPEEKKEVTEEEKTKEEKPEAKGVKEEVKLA

Row | IC50 (HDAC1) | IC50 (HDAC3) | IC50 (HDAC2) | Compound | decrease in cell viability [1] | increase in the percentage of HbG relative to other beta-like globin transcripts [2] | HbG induction in cells positive for both CD71 and GlyA ([2]; follow-up experiments, CD71+ GlyA+ cells) | cells positive for the erythroid differentiation markers CD71 and glycophorinA [3] | decrease in Sox6 mRNA (Sox6 mRNA) | decrease in Bcl11A mRNA (Bcl11A mRNA) | increase in Klf2 mRNA (Klf2 mRNA) | increase in Gata2 mRNA (Gata2 mRNA) | probe sets down regulated [4] | probe sets up regulated [4] | total probe set changes [5]
1 | 4 nM | 114 nM | 15 nM | Nc1ccc(-c2cccs2)cc1NC(=O)c1ccc2nc(N3CCNCC3)ccc2c1 [Compound 001, N-(2-amino-5-(thiophen-2-yl)phenyl)-2-(piperazin-1-yl)quinoline-6-carboxamide] | approximately 3 fold | 3 fold | unable to induce HbG | reduction | 10 fold | 2 fold | 2 fold | 8 fold | 681 | 1294 | 255
2 | 27 nM | 247 nM | 24 nM | Nc1ccc(-c2ccncc2)cc1NC(=O)c1ccc2c(c1)cc(C1CC1)n2CCN1CCOCC1 [Compound 004, N-(2-amino-5-(pyridin-4-yl)phenyl)-2-cyclopropyl-1-(2-morpholinoethyl)-1H-indole-5-carboxamide] | 1.2 fold | 3 fold | – | – | – | – | – | – | – | – | –
